# In patent US20190210973A1, “COMPOUNDS AND METHODS FOR TREATMENT OF CYSTIC FIBROSIS” (The Curators of the University of Missouri, priority 2018, published 2019):
# Legend:
# Type in all cases: cell-based
# [1] = target: T1, delF508-CFTR (Homo sapiens, UniProt P13569, DEL508-508); test: Western blot of delF508-CFTR membrane (surface) expression, Band C; parameters: delF508 stably-transfected C127 cells were cultured in DMEM with 10% FBS in 6-well plates; expressed in transfected cells; host or cells: C127 cells stably expressing delF508-CFTR; conditions: for surface expression of delF508-CFTR (Band C, corrected to vimentin, DMSO = 100): C127 cells
# Excerpt: The amount of CFTR proteins in the cell membrane can be determined with Western blot analysis. Like all membrane proteins in the cell, the CFTR protein is synthesized in the endoplasmic reticulum (ER), translocated to the Golgi apparatus for glycosylation before trafficked to the plasma membrane. Because of the addition of complex sugar molecules to CFTR, the molecular weight of “mature” or post-Golgi CFTR in the plasma membrane is higher than that of newly synthesized proteins in the ER. Thus, in Western blot, it is possible to discern two distinct bands: band C representing high molecular weight, mature CFTR, and band B low molecular weight, immature CFTR. While wild-type proteins are present mostly as band C, Class II disease-associated mutations such as delF508 causes a drastic diminution of band C, resulting in an effective decrease of N in the formula N×Po×i. The effects of the reagents (or CFTR correctors) that enhance band C can thus be quantitatively assessed with the Western blot analysis. By the same token, any interactions between different compounds, with positive or negative impact on band C, can be determined with this assay.
# Western blot experiments were carried out in both transient expression system (CHO cells) and a stable cell line (C127 cells). CHO cells, grown in 35 mm dishes, were transfected with delF508-CFTR construct in pcDNA plasmids using X-tremeGENE (Roche). Six hours after transfection, tested compounds were added to the medium. In case of delF508-CFTR-expressing stable C127 cells, compounds were added to the medium at about 30% confluence. In both cases, cells were lysed 18 hours post drug treatment using 1×SDS loading buffer. Cell lysates were sheared by pushed through 18G needles. Whole cell lysate were separated in 4˜20% gradient gels (Bio-Rad Laboratories) and transferred onto nitrocellulose membranes. The membranes were blocked with 5% milk in TBST buffer (20 mM Tris, 137 mM NaCl, 0.1% Tween 20) at 4° C. overnight. The membranes were then probed with anti-CFTR antibody (AB596 from the Cystic Fibrosis Foundation) and anti-vimentin antibody as a control (Santa Cruz Biotechnology) at room temperature for two hours. The membranes were washed with TBST five times and then incubated with anti-mouse IgG, HRP-linked antibody (Cell Signaling Technology) at room temperature for one hour. The membranes were washed three times with TBST and developed with chemiluminescence reagent (Thermo Scientific). The luminescence was detected and quantified by a Molecular Image Chemi Doc (Bio-Rad Laboratories).
# For Western blotting experiments, delF508 stably-transfected C127 cells were cultured in DMEM with 10% FBS in 6-well plates. Different tested compounds were added to the culture medium within 24 hours of passage to the desired concentration. Cells were lysed 18 hours post drug treatment using 1×SDS loading buffer. Cell lysates were sheared by pushed through 18G needles. Whole cell lysates were separated in 4-20% gradient gels (Bio-Rad Laboratories) and transferred onto nitrocellulose membranes. The membranes were blocked with 5% milk in TBST buffer (20 mM Tris, 137 mM NaCl, 0.1% Tween 20) at 4° C. overnight. The membranes were then probed with anti-CFTR antibody (AB660 from CFTR foundation) and anti-vimentin antibody as a loading control (Santa Cruz Biotechnology) at room temperature for two hours. The membranes were washed with TBST five times and then incubated with anti-mouse IgG, HRP linked antibody (Cell Signaling Technology) at room temperature for one hour. The membranes were washed three times with TBST and developed with chemiluminescence reagent (Thermo Scientific). The luminescence was detected by a Molecular Image Chemi Doc (Bio-Rad Laboratories). […]
# [2] = target: T1, delF508-CFTR; test: Patch-clamp recording of delF508-CFTR currents in excised inside-out patches of transfected CHO cells
# Excerpt: (§1) Patch-clamp is considered the gold standard for assessing directly ion channel function in real time. By attaching a glass microelectrode on the surface of a cell, it is possible to record the currents generated by channels proteins that are present in this tiny “patch” of cell membranes. Since millions of ions pass through a single ion channel pore per second, the resulting microscopic currents from a single channel protein molecule can be detected with modem patch-clamp amplifiers. As ion channels (a conductor in electricity term) are arranged in parallel in the cell membrane, it is also possible to assay a group of ion channels by monitoring macroscopic currents representing the sum of currents from individual channels. Microscopic recordings allow artisans to examine exquisitely the effects of compounds on the Po and kinetic parameters of CFTR channels; whereas macroscopic recordings provide an assay not only to quantify the overall effects of compounds on N×Po×i, but also monitor the stability of the CFTR currents in real time.
# (§2) Chinese hamster ovary (CHO) cells were grown at 37° C. in Dulbecco's modified Eagle's medium supplemented with 10% fetal bovine serum. Cells were subcultured into 35-mm tissue culture dishes 1 day before transfection. PolyFect transfection reagent (QIAGEN) was used to cotransfect CFTR cDNA and pEGFP-C3 (Takara Bio Inc.), which encodes green fluorescence proteins, into CHO cells. After transfection, cells were incubated at 27° C. for at least 2 days before electrophysiological experiments were performed.
# (§3) Glass chips carrying the transfected cells were transferred to a chamber located on the stage of an inverted microscope (IX51; Olympus). Borosilicate capillary glasses were used to make patch pipettes using a two-stage micropipette puller (PP-81, Narishige, Japan). The pipettes were polished with a homemade microforge to a resistance of 2-4 MΩ in the bath solution. Once the seal resistance reached >40 GΩ, membrane patches were excised into an inside-out mode. Subsequently, the pipette was moved to the outlet of a three-barrel perfusion system and perfused with 25 IU PKA and 2 mM ATP until the CFTR current reached a steady state. A patch-clamp amplifier (EPC10, HEKA, Germany) was used to record electrophysiological data at room temperature. The data were filtered online at 100 Hz with an eight-pole Bessel filter (LPF-8; Warner Instruments) and digitized to a computer at a sampling rate of 500 Hz. […] Membrane potential was held at −30 or −50 mV for all recordings.
# (§4) Disease-causing mutations (G551D and delF508) were made with PCR-based site-directed mutagenesis using the Pfu Ultra II (Agilent Technologies). […] The cDNA constructs of CFTR (G551D and delF508) were co-transfected with peGFP-C3 (Takara Bio Inc.) encoding the green fluorescent protein into CHO cells using PolyFect transfection reagent (QIAGEN). The transfected cells were transferred into 35 mm tissue culture dishes containing one layer of sterilized glass chips for cells to grow on. The transfected cells were incubated at 27° C. for 2-7 days before electrophysiological experiments were performed.
# (§5) All patch-clamp experiments were carried out in the excised inside-out configuration. Micropipettes made of borosilicate capillary glass were pulled with a two-stage vertical puller (Narishige) and then fire-polished with a homemade microforge to reach a pipet resistance of 2-4 MΩ when the pipettes were filled with a standard inside-out pipet solution that contains: 140 mM N-Methyl-D-glucamine-Cl (NMDG-Cl), 2 mM MgCl2, 5 mM CaCl2) and 10 mM HEPES, adjusted to pH 7.4 with NMDG.
# [3] = target: T2, G551D-CFTR (Homo sapiens, UniProt P13569, G551D); test: Patch-clamp recording of G551D-CFTR currents in excised inside-out patches of transfected CHO cells; conditions: for fold increase of G551D-CFTR currents (ILZH+ATP/IATP): single application
# T2 construct: The cDNA constructs of CFTR (G551D and delF508) were co-transfected with peGFP-C3; expressed in transfected cells; host or cells: CHO cells (ATCC), transient co-transfection with pEGFP-C3 (GFP as a separate marker, not fused)
# Excerpt: as §1, §2, §3, §4, §5
# T2 sequence (P13569 whole entry G551D, the tested form may be a part): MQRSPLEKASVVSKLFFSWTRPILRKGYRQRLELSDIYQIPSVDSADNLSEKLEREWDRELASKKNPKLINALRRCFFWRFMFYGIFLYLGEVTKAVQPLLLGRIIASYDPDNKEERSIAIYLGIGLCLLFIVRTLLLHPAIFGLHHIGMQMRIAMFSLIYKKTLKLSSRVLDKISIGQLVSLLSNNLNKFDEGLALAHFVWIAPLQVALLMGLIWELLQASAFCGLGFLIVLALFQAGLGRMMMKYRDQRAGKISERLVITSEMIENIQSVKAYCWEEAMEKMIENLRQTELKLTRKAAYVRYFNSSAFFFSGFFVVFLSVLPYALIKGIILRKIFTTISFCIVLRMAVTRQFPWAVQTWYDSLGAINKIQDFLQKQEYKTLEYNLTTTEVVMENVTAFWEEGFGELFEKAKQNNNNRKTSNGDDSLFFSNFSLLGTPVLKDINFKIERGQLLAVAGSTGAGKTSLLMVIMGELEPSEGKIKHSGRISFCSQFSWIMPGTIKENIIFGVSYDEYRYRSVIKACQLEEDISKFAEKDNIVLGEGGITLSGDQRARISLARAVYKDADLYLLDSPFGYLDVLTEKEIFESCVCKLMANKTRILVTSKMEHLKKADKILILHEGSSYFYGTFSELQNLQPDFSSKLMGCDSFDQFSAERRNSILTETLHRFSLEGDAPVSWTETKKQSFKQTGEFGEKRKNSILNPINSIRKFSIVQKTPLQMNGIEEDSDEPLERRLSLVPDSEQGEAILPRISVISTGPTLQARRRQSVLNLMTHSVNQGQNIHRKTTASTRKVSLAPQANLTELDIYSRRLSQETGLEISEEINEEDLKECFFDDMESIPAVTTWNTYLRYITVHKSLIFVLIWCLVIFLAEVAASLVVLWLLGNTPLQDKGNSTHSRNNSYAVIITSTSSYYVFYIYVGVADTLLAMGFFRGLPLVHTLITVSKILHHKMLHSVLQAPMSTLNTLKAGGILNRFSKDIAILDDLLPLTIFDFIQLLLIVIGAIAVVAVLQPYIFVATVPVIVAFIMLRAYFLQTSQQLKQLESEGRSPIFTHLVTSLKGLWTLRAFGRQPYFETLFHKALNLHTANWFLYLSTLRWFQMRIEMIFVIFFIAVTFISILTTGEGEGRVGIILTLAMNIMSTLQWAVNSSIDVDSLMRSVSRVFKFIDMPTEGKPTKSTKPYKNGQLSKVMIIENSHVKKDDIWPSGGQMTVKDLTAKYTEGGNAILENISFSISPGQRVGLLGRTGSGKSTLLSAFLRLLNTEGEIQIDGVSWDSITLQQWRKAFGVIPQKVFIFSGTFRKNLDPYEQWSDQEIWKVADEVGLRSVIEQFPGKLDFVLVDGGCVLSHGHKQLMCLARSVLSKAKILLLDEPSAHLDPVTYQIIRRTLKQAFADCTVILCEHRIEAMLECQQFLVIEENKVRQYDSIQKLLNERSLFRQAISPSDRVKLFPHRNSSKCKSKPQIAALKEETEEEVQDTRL
# T1 sequence (P13569 with tags, fused parts or gaps DEL508-508): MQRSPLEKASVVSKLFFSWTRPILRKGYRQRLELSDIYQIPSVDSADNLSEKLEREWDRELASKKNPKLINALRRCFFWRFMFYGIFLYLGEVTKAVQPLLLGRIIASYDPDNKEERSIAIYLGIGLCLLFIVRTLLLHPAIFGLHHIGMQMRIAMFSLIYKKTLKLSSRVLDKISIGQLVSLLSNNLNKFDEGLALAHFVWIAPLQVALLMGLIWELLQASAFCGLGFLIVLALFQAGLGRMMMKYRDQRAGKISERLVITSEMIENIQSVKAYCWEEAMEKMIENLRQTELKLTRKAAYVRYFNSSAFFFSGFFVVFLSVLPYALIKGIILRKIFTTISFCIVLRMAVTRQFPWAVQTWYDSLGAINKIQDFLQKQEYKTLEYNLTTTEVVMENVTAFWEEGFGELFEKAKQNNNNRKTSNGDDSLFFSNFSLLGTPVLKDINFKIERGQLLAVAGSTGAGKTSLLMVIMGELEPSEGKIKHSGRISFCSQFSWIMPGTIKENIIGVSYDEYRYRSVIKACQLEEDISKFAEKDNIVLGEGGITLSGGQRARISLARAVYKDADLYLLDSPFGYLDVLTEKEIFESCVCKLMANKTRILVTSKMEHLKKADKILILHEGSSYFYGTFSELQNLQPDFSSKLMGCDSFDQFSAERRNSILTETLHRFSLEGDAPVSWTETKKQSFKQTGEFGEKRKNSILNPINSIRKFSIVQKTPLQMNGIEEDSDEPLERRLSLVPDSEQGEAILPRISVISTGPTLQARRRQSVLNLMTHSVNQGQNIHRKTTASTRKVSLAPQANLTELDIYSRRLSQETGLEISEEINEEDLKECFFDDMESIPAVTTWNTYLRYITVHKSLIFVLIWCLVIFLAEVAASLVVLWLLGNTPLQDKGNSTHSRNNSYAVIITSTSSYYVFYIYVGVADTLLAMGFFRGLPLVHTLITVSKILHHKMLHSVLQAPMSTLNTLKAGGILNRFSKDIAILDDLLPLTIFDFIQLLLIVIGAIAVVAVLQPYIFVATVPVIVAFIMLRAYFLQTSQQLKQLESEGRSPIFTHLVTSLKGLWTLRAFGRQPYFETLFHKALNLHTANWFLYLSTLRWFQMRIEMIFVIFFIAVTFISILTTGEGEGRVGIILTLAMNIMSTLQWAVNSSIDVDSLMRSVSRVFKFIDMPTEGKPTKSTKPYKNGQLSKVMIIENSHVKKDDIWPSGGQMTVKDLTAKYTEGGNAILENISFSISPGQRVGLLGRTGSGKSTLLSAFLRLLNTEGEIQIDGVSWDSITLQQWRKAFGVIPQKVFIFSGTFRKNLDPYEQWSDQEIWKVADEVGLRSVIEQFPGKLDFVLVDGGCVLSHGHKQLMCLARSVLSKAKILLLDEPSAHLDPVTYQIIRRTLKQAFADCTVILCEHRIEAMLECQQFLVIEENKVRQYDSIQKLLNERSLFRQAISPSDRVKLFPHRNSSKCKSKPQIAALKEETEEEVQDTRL
compound,measurement,setting,value
"CNCCCCOc1ccc(-c2n[nH]c3cc(Br)ccc23)c(F)c1 [LZH-00025, 4-(4-(6-bromo-1H-indazol-3-yl)-3-fluorophenoxy)-N-methylbutan-1-amine]","surface expression of delF508-CFTR (Band C, corrected to vimentin, DMSO = 100)","[1]; 3 μM VX-809 + 0.1 μM LZH compound, lane 5","263 ± 27, N = 4"
same,"surface expression of delF508-CFTR (Band C, corrected to vimentin, DMSO = 100)","[1]; 3 μM VX-809 + 0.5 μM LZH compound, lane 4","323 ± 14, N = 4"
same,"surface expression of delF508-CFTR (Band C, corrected to vimentin, DMSO = 100)","[1]; 3 μM VX-809 + 5 μM LZH compound, lane 3","300 ± 42, N = 4"
same,influence on the effect of Lumacaftor (VX-809) on membrane expression of delF508-CFTR (words),[1]; added to 3 μM VX-809,retains or even enhances the effect of Lumacaftor
same,fold increase of delF508-CFTR currents (ILZH+ATP+VX-770/IATP),"[2]; combined application with VX-770 (200 nM), 2.5 μM LZH compound","7.7 ± 2.0, N = 3 fold"
same,fold increase of delF508-CFTR currents (ILZH+ATP+VX-770/IATP),"[2]; combined application with VX-770, 0.5 μM LZH compound","7.3 ± 0.8, N = 3 fold"
same,fold increase of delF508-CFTR currents (ILZH+ATP/IATP),"[2]; single application, 5 μM","3.6 ± 0.9, N = 4 fold"
same,fold increase of G551D-CFTR currents (ILZH+ATP+VX-770/IATP),"[3]; combined application with VX-770, 0.2 μM LZH compound","8.0 ± 1.0, N = 3 fold"
same,fold increase of G551D-CFTR currents (ILZH+ATP+VX-770/IATP),"[3]; combined application with VX-770, 1 μM LZH compound","11.0 ± 2.9, N = 4 fold"
same,fold increase of G551D-CFTR currents (ILZH+ATP+VX-770/IATP),"[3]; combined application with VX-770, 5 μM LZH compound","9.7 ± 0.7, N = 4 fold"
same,fold increase of G551D-CFTR currents (ILZH+ATP/IATP),[3]; 1 μM,"2.1 ± 0.2, N = 11 fold"
same,fold increase of G551D-CFTR currents (ILZH+ATP/IATP),[3]; 5 μM,"4.9 ± 0.7, N = 14 fold"
same,fold increase of G551D-CFTR currents (ILZH+ATP/IATP),[3]; 20 μM,"7.4 ± 0.5, N = 8 fold"
